Experimental findings from patent US20100075907A1, “NEUROMEDIN U RECEPTOR AGONISTS AND USES THEREOF” (priority 2006, published 2010) are described below.

Non-standard residues stand in square brackets, D forms with d. Residues, ends and D or L forms follow the SMILES beside them. No end group written: not given here. *: point of attachment. Succinimide(1-Et,3-yl) = CCN1C(=O)CC(*)C1=O; Palmitoyl = CCCCCCCCCCCCCCCC(=O)*

Format in all cases: cell-based
The target in one experiment is T1, rat NMUR1-ATG (Rattus norvegicus, UniProt Q9JJI5).
T1 sequence (Q9JJI5 1-425): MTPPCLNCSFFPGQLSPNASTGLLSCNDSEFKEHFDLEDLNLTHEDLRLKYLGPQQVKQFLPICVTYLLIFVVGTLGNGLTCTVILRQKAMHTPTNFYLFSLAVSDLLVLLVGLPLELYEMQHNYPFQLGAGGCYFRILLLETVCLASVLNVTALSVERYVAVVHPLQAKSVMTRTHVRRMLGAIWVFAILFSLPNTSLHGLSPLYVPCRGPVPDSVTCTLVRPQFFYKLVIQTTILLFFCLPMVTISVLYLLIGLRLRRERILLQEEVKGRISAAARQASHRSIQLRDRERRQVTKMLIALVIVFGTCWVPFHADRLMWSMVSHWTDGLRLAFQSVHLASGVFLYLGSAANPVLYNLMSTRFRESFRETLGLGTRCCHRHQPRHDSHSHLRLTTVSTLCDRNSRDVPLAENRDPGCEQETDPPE
Description: FLIPR calcium mobilization assay, rat NMUR1-ATG. Further details: expressed in transfected cells; host or cells: FLP-In CHO or HEK-293 FLP-In cells (pcDNA5). Particulars: for IC50: functional data; for EC50: FLIPR. From the text: (§1) Human, mouse or rat cDNAs encoding NMUR1 or NMUR2 (as described in Howard et al. Nature 406: 70-74 (2000) were subcloned in pcDNA5 (Invitrogen) and transfected into FLP-In CHO cells and HEK-293 FLP-In cells purchased from Invitrogen (Carlsbad, Calif.) using lipofectamine (Invitrogen). The Flp-In system allows integration and expression of a particular gene of interest at a specific genomic location utilizing the Flp recombinase from yeast. The transfected cells were selected by growth in medium containing 200 μg/mL hygromycin (Invitrogen). Populations were frozen at early passage numbers, and these stocks were used for further studies. Stable clones that expressed the mRNAs were identified functionally by FLIPR as well as by RT-PCR. […] Two different rodent NMUR1 cell lines were thus generated: one with the codon as predicted from the genomic databases and another cell line with an engineered methionine (ATG) as the start codon. Additionally, stable cell lines expressing the human receptors were generated in HEK-293/aeq17 cells which stably express the aequorin gene under the CMV promoter. The human NMUR2 cDNA was cloned into pcDNA3.1 and human NMUR1 was subcloned into pIRES-puro (Clontech, Mountain View, Calif.), after transfection cells were selected in media containing G418 and either hygromycin (NMUR2) or puromycin (NMUR1).
(§2) The NMU receptors signal primarily through Gαq/11 proteins; therefore calcium mobilization assays can be utilized for functional activity.
(§3) Stable cell lines expressing human and or rodent NMUR1 or human NMUR2 receptors were plated at a density of 12,000 cells per well overnight on poly-lysine coated 384-well black-walled plates. The following day, the media was removed from the plates and the cells were subsequently loaded with Fluo-3 (Molecular Probes), a calcium sensitive dye, diluted in FLIPR buffer (1× Hank's buffered saline containing 20 mM HEPES, 0.1% BSA, 2.5 mM probenecid (Sigma) and 1.6 mM TR40). All reagents are from Invitrogen unless otherwise noted. Peptide stocks were resuspended in DMSO at a stock concentration of 2 mM and diluted in FLIPR buffer on the day of the experiment to a 4 μM working stock solution.
(§4) After a 90 minute incubation at room-temperature, cell plates were loaded onto a FLIPR (Molecular Devices) to monitor cellular fluorescence (excitation=488 nm; emission=540 nm) before and after compound/peptide addition. Eight to twelve point dose responses were tested on NMUR-expressing cell lines using FLIPR with 1 μM peptide as the highest dose. The response after peptide addition was taken as the maximum fluorescence units minus the fluorescence immediately prior to stimulation for each well. EC50 values were calculated using GraphPad Prism (San Diego, Calif.) software.
(§5) In vitro responses of Neuromedin U receptor agonists (NMU1 to NMU25) in the FLIPR assay for human (Table 3), mouse (Table 4) and rat (Table 5) NMUR1 and NMUR2. EC50s are reported in nM values. Percent activity refers to the maximum response at 1 μM compared to the hNMU-25 response at the same concentration. NT=not tested.

For another experiment, the target named is hNMUR2 (Homo sapiens, UniProt Q9GZQ4). Kind of experiment: In vitro functional assay, HEK-hR2 cells. Further details: expressed in transfected cells; host or cells: FLP-In CHO or HEK-293 FLP-In cells (pcDNA5); HEK-293/aeq17 lines (pcDNA3.1) were also made; % Activity: concentration or dose not given beside the values.
Excerpt: as §1, §2, §3, §4
In addition to FLIPR, NMU receptor function can also be evaluated using an aequorin assay. Stable cell lines expressing the aequorin jelly fish gene can be used to report the activation of GPCRs by monitoring intracellular calcium mobilization. The objective is to identify compounds which specifically stimulate aequorin bioluminescence. Calcium-dependent luminescence is generated by the treatment of cells with the coelenterate luciferin, coelenterazine. Briefly, confluent monolayers of HEK-293/aeq 17 cells expressing hNMUR1 or hNMUR2 are “charged” with coelenterazine (Molecular Probes, Carlsbad, Calif.). Confluent T75 flasks are rinsed with media containing 300 μM glutathione and 0.1% FBS. Cells are incubated at 37° C. for one hour in 8 mL media, 0.1% FBS, 300 μM glutathione, and 20 μM coelenterazine. T75 flasks are subsequently rinsed with 6 mL ECB buffer (140 mM NaCl, 20 mM KCl, 20 mM HEPES, 5 mM glucose, 1 mM MgCl, 1 mM CaCl2, 0.1 mg/mL BSA, PH 7.3-7.4). Cells are removed from the flask in ECB buffer, pelleted, and resuspended at a density of 2×10^5 cells/mL. Agonists are added to the cells and activity is determined using a luminometer.

Another experiment has as its target rat NMUR2 (Rattus norvegicus, UniProt Q9ESQ4). Description: FLIPR calcium mobilization assay, rat NMUR2. Further details: expressed in transfected cells; host or cells: FLP-In CHO or HEK-293 FLP-In cells (pcDNA5). Particulars: for IC50: functional data, rat R2; for EC50: FLIPR.
Excerpt: as §1, §2, §3, §4, §5

The mark [1] stands for this setting: maximum response at 1 μM compared to hNMU-25, rat NMUR1-ATG.
[2] abbreviates: maximum response at 1 μM compared to hNMU-25, rat NMUR2.

rat NMUR2, sequence (Q9ESQ4 whole entry): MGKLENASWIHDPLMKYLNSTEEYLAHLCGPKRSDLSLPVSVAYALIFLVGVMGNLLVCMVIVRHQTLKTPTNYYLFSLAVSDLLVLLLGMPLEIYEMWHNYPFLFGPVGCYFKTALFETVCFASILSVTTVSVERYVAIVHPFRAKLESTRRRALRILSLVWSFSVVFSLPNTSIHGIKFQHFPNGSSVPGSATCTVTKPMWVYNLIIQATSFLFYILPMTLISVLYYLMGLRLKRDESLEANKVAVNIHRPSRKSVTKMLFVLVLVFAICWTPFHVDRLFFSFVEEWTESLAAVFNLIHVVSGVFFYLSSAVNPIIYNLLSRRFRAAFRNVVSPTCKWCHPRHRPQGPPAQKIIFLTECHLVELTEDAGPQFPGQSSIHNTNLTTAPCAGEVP
hNMUR2, sequence (Q9GZQ4 whole entry): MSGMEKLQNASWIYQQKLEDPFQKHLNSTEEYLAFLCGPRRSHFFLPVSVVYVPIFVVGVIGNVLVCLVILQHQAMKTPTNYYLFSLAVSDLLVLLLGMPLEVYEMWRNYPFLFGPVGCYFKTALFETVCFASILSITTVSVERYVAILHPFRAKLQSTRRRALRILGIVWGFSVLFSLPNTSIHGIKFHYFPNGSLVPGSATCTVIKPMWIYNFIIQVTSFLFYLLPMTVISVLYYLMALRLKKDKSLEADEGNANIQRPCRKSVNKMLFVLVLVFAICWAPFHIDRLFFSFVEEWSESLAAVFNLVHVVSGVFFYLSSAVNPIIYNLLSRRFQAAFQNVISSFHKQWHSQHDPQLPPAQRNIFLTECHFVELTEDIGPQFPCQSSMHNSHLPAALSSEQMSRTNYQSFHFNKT

On to `CC(C)C[C@@H](NC(=O)[C@H](Cc1ccccc1)NC(=O)[C@H](Cc1ccc(O)cc1)NC(=O)CNC(=O)[C@H](CCCNC(=N)N)NC(=O)[C@H](CO)NC(=O)[C@H](CCC(N)=O)NC(=O)[C@H](CO)NC(=O)[C@H](C)NC(=O)[C@H](Cc1ccccc1)NC(=O)[C@@H]1CCCN1C(=O)[C@H](CO)NC(=O)[C@H](CCC(N)=O)NC(=O)[C@H](Cc1ccccc1)NC(=O)[C@H](CCC(=O)O)NC(=O)[C@H](CCC(=O)O)NC(=O)[C@H](CC(=O)O)NC(=O)[C@@H](NC(=O)[C@H](CCCNC(=N)N)NC(=O)[C@@H](N)Cc1ccccc1)C(C)C)C(=O)N[C@@H](Cc1c[nH]c2ccccc12)C(=O)N[C@@H](CCCNC(=N)N)C(=O)N1CCC[C@H]1C(=O)N[C@@H](CCCNC(=N)N)C(=O)N[C@@H](CC(N)=O)C(N)=O` [Agonist H] (H-FRVDEEFQSPFASQSRGYF[dL]WRPRN-NH2; N-terminus assumed), for which the half-inhibitory concentration (IC50) at rat NMUR1-ATG (rat R1-ATG) was 31.1 nM; at hNMUR2 (Table 8, HEK-hR2, functional) it was over 1000 nM; at rat NMUR2, over 1000 nM. Also, the “% Activity” value was found to be 95% on rat NMUR1-ATG (functional, rat R1-ATG, relative to native hNMU responses); 0% on hNMUR2 (Table 8, HEK-hR2, functional); 42% at rat NMUR2 (functional, rat R2, relative to native hNMU responses).
Regarding `CCCCCCCCCCCCCCCC(=O)N[C@@H](CSC1CC(=O)N(CC)C1=O)C(=O)N[C@@H](Cc1ccccc1)C(=O)N[C@@H](CCCNC(=N)N)C(=O)N[C@H](C(=O)N[C@@H](CC(=O)O)C(=O)N[C@@H](CCC(=O)O)C(=O)N[C@@H](CCC(=O)O)C(=O)N[C@@H](Cc1ccccc1)C(=O)N[C@@H](CCC(N)=O)C(=O)N[C@@H](CO)C(=O)N1CCC[C@H]1C(=O)N[C@@H](Cc1ccccc1)C(=O)N[C@@H](C)C(=O)N[C@@H](CO)C(=O)N[C@@H](CCC(N)=O)C(=O)N[C@@H](CO)C(=O)N[C@@H](CCCNC(=N)N)C(=O)NCC(=O)N[C@@H](Cc1ccc(O)cc1)C(=O)N[C@@H](Cc1ccccc1)C(=O)N[C@@H](CC(C)C)C(=O)N[C@@H](Cc1ccccc1)C(=O)N[C@@H](CCCNC(=N)N)C(=O)N1CCC[C@H]1C(=O)N[C@@H](CCCNC(=N)N)C(=O)N[C@@H](CC(N)=O)C(N)=O)C(C)C` (stereo partly shown) [NMU24] (Palmitoyl-C(Succinimide(1-Et,3-yl))FRVDEEFQSPFASQSRGYFLFRPRN-NH2), the entries for the “% Activity” value on rat NMUR1-ATG (setting [1]) and on rat NMUR2 (setting [2]) were 80.8% and 52.2%, respectively.
On to “Ac-C2FQSPFASQSRGYFLFRPRN-CONH2 ({Ac-C(PEG 40 kDa)}-FQSPFASQSRGYFLFRPRN-NH2; not fully specified; printed as Ac-C2FQSPFASQSRGYFLFRPRN-CONH2) [NMU20, C2 = Cys(PEG)240 kDa]”, for which the EC50 came out at 7.2 nM in the experiment with rat NMUR1-ATG (rat NMUR1-ATG) and 16.9 nM with rat NMUR2 (rat NMUR2).
On the same counts, the results for “Ac-C2FRVDEEFQSPFASQSRGYFLFRPRN-CONH2 [NMU9] ({Ac-C(PEG 40 kDa)}-FRVDEEFQSPFASQSRGYFLFRPRN-NH2) [C2 = Cys(PEG)240 kDa from Nektar (mPEG2-MAL-40 k)]” are 9.7 nM and 4.5 nM.
As for “Ac-C4-C4-FRVDEEFQSPFASQSRGYFLFRPRN-CONH2 ({Ac-C(PEG 20 kDa)-C(PEG 20 kDa)}-FRVDEEFQSPFASQSRGYFLFRPRN-NH2) [NMU23, C4 = Cys(PEG)20 kDa]”, the EC50 with rat NMUR1-ATG (rat NMUR1-ATG) was 127 nM; with rat NMUR2 (rat NMUR2), 47.4 nM. Besides, the entries for the “% Activity” value with rat NMUR1-ATG (setting [1]) and in the experiment with rat NMUR2 (setting [2]) were 76.4% and 90.2%, respectively.
For “Ac-C4FRVDEEFQSPFASQSRGYFLFRPRN-CONH2 ({Ac-C(PEG 20 kDa)}-FRVDEEFQSPFASQSRGYFLFRPRN-NH2) [NMU21, C4 = Cys(PEG)20 kDa]”, the figures for the EC50 with rat NMUR1-ATG (rat NMUR1-ATG) and with rat NMUR2 (rat NMUR2) were 19.5 nM and 7 nM, respectively. The “% Activity” value with rat NMUR1-ATG (setting [1]) was determined as 99.9%; with rat NMUR2 (setting [2]), 99.2%.
Take Ac-FRVDEEFQSPFASQSRGYFLFRPRN-NH2 [NMU2]: the “% Activity” value on rat NMUR1-ATG (setting [1]) was 89.2%; at rat NMUR2 (setting [2]) it was 100%. At rat NMUR2 (rat NMUR2), the EC50 is 2.2 nM.
Consider Ac-FRVDEEFQSPFASQSRPYFLFRPRN-NH2 [NMU5], for which the “% Activity” value on rat NMUR1-ATG (setting [1]) and on rat NMUR2 (setting [2]) was 100% throughout.
As for GYFLFRPRN-NH2 [NMU3], the “% Activity” value at rat NMUR1-ATG (setting [1]) and on rat NMUR2 (setting [2]) was 100% throughout.
As for “H-FRVDEEFQSPFASQSRGYFLFRPRN-NH2 [hNMU-25, reference compound]”, the IC50 is 1.3 nM on rat NMUR1-ATG (rat R1-ATG) and 1.6 nM on rat NMUR2. Besides, the “% Activity” value on hNMUR2 (Table 9, HEK-hR2, functional) is given as 100%. Besides, the EC50 on hNMUR2 (Table 9, HEK-hR2, functional) stood at 1.5 nM.
Consider H-FRVDEEFQSPFASQSRPYFLFRPRN-NH2 [NMU4], for which the “% Activity” value on rat NMUR1-ATG (setting [1]) and on rat NMUR2 (setting [2]) was 100% each time.
“Pam-C2FRVDEEFQSPFASQSRGYFLFRPRN-CONH2 ({Palmitoyl-C(PEG 40 kDa)}-FRVDEEFQSPFASQSRGYFLFRPRN-NH2) [NMU25, Pam = palmitoyl; C2 = Cys(PEG)240 kDa]”: the values for the EC50 in the experiment with rat NMUR1-ATG (rat NMUR1-ATG) and in the experiment with rat NMUR2 (rat NMUR2) were 20.1 nM and 37.8 nM, respectively. In addition, the “% Activity” value stood at 99.6% in the experiment with rat NMUR1-ATG (setting [1]) and 96.4% with rat NMUR2 (setting [2]).
